Measurements published in patent US20240109898A1, “SUBSTITUTED PYRAZOLO[1,5-A]PYRIMIDINE-7-AMINE DERIVATIVES, COMPOSITIONS AND PHARMACEUTICAL USES THEREOF” (SHANGHAI HAIYAN PHARMACEUTICAL TECHNOLOGY CO., LTD., priority 2021, published 2024).

How the values were obtained:
Format in all cases: biochemical
CDK9/CycT = CDK9/CycT (Homo sapiens (Human), UniProt P50750); assay: LANCE Ultra kinase activity inhibition assay, CDK9/CycT; details: ATP 10 μM, highest compound concentration 1 μM
Method: (§1) In the following LANCE Ultra test methods, kinase reagents were purchased from Carna Bioscience, reaction substrates and detection reagents were purchased from PerkinElmer, and the remaining reagents were purchased from Thermo scientific.
The inhibiting effects on the kinase activity of CDK1/CycB (Carna bioscience, #04-102), CDK2/CycA (Carna bioscience, #04-103) and CDK9/CycT (Carna bioscience, #04-110) were determined by using LANCE Ultra method.
The kinase activity test was performed using a system (10 μL) containing the following components: substrate diluent prepared by mixing CDK kinase diluent, Ulight-Myelic basic protein (Perkin Elmer, #TRF-0109, hereinafter referred to as U-MBP) and ATP (Thermo scientific, #PV3227); and the compounds (i.e., analyte) prepared in the examples of the present disclosure. The assay for each kinase includes three test groups, i.e., a background group (Blank), a non-inhibition group (PC), and compound testing group (Test). The components included in each test group were as follows:
(§2) Working concentrations of the respective components of the Test groups in different kinase reactions were as follows.
(§3) Compounds: 10 mM of the compound to be tested was dissolved at room temperature and diluted with DMSO to gradient concentrations, followed by diluting with deionized water to prepare a 4× working solution of the compound, and the content of DMSO was 2%. The highest concentration of compound used in the CDK1 and CDK2 assays was 10 μM, and that in CDK9 assay was 1 μM.
1.33×reaction buffer: the components include 26.7 mM of MOPS, 6.67 mM of MgCl2, and 0.0133% Tween-20, which were stored in a 4° C. refrigerator and protected from light after preparation. Freshly prepared DTT was added to a final concentration of 5.33 mM before use.
(§4) The working concentration of DMSO in the reaction was 0.5%.
(§5) The above-mentioned components, after being mixed, were placed on a shaker and incubated at room temperature in the dark for 1 h. 10 μL of test solution was then added to all test groups (including Blank, PC and Test groups).
10 μL of test solution contains the following components: 16 mM of EDTA (Thermo scientific, #15575), 1 nM of phosphorylated U-MBP protein antibody (Perkin Elmer, #TRF-0201), and 1× detection damping fluid (Perkin Elmer, #CR97-100).
After the test solution was added, the solution was placed on a shaker and continually incubated at room temperature for 1 h in the dark. At the end of incubation, Victor X5 fluorescence microplate reader of Perkin Elmer was used to read the signal; the wavelength of excitation light was 320 nm, and the wavelengths of emission light were 615 nm and 665 nm. The inhibition rate was calculated as below.
1. For all groups, a value of 665 nm/615 nm (hereinafter referred to as Ratio) was calculated, and an inhibition rate was calculated based on the Ratio of each group;
(§6) 2. Inhibition rate=(PCRatio-TestRatio)/(PCRatio-BlankRatio)*100%; and
(§7) 3. XLFIT 5.0 software (IDBS, UK) was used to fit a graph by using the logarithmic value of the compound concentration as the X-axis and the inhibition rater as the Y-axis, and a four-parameter model was used to calculate the half inhibitory concentration IC50 of the compound.

CDK2/CycA = CDK2/CycA (Homo sapiens (Human), UniProt P24941); assay: LANCE Ultra kinase activity inhibition assay, CDK2/CycA; details: ATP 10 μM, highest compound concentration 10 μM
Source text: as §1
(§8) The assay for each kinase includes three test groups, i.e., a background group (Blank), a non-inhibition group (PC), and compound testing group (Test). The components included in each test group were as follows:
as §2, §3, §4, §5
(§9) After the test solution was added, the solution was placed on a shaker and continually incubated at room temperature for 1 h in the dark. […] The inhibition rate was calculated as below.
as §6, §7

CDK1/CycB = CDK1/CycB (Homo sapiens (Human), UniProt P06493); assay: LANCE Ultra kinase activity inhibition assay, CDK1/CycB; details: ATP 4 μM, highest compound concentration 10 μM
Source text: as §1, §8, §2, §3, §4, §5, §9, §6, §7

Chain of CDK1/CycB (P06493 whole entry): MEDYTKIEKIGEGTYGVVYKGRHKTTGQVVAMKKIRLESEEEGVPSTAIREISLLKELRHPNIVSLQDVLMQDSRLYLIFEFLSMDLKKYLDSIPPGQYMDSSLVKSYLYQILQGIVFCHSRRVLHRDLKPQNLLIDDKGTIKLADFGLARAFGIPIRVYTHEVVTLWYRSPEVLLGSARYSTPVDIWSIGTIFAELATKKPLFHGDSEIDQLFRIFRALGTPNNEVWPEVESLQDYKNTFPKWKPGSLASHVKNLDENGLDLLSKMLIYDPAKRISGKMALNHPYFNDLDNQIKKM
Chain of CDK1/CycB (P14635 whole entry partner): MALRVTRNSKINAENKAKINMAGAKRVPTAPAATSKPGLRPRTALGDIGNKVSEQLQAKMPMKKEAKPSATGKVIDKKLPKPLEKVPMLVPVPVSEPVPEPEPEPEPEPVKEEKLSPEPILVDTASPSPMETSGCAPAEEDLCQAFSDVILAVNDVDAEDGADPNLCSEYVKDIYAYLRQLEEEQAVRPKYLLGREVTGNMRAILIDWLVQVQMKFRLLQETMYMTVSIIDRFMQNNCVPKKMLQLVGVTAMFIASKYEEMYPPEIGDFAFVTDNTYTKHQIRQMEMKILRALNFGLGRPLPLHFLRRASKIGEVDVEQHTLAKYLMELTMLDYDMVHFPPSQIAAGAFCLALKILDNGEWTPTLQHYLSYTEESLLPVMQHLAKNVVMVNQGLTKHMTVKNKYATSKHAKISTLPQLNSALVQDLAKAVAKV
Chain of CDK9/CycT (P50750 whole entry): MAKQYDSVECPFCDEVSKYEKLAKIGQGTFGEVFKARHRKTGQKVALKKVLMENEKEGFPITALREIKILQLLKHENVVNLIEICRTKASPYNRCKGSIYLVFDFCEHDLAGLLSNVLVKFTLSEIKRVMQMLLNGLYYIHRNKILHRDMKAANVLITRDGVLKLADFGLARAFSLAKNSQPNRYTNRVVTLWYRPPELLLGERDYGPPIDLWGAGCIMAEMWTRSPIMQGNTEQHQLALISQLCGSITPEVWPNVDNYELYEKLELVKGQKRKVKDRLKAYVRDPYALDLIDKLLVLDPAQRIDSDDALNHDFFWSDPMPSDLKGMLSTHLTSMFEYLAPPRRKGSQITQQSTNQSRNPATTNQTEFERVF
Chain of CDK9/CycT (O60563 whole entry partner): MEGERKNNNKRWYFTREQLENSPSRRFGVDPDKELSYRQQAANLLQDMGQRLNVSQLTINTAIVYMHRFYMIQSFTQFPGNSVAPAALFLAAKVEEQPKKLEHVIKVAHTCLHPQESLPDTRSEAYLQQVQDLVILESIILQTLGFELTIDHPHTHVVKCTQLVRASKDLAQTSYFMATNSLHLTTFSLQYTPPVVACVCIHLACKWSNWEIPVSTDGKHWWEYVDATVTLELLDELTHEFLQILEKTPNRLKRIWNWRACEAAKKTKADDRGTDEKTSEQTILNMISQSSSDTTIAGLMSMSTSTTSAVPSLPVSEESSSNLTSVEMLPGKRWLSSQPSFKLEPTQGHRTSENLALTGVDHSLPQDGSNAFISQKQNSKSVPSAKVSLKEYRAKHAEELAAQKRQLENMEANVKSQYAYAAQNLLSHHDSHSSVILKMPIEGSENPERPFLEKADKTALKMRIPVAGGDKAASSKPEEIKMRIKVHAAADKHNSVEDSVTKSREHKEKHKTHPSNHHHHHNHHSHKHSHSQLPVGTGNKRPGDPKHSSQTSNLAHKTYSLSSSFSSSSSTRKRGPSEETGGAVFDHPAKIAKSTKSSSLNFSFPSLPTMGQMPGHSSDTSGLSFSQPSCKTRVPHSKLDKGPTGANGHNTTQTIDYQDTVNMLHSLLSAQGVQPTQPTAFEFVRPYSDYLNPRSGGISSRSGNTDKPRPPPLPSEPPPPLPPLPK

Row | SMILES | IC50 (CDK9/CycT) [µM] | IC50 (CDK2/CycA) [µM] | IC50 (CDK1/CycB) [µM]
1 | Cc1cnn2c(N[C@H]3CC[C@H](N)C3)cc([C@H](C)C3CCC3)nc12 (single isomer, unassigned) [Compound Z-38-P1] | 0.04 |  | 
2 | N[C@H]1CC[C@H](Nc2cc(C(C3CC3)C3CC3)nc3ccnn23)C1 [Compound Z-1] | 0.018 | 5.65 | 1.96
3 | N[C@H]1CC[C@H](Nc2cc(CC3CC3)nc3ccnn23)C1 [Compound Z-3] | 0.073 | > 10 | > 10
4 | C[C@@H](c1cc(N[C@H]2CC[C@H](N)C2)n2nccc2n1)C1CC1 [Compound Z-5-1] | 0.023 |  | 
5 | CC(c1cc(N[C@H]2CC[C@H](N)C2)n2nccc2n1)C1CC1 (stereo partly drawn) [Compound Z-5] | 0.017 |  | 
6 | C[C@@H](c1cc(N[C@H]2CC[C@H](N)C2)n2nccc2n1)C1CCC1 [Compound Z-11-P2] | 0.03 |  | 
7 | CC(c1cc(N[C@H]2CC[C@H](N)C2)n2nccc2n1)C1CCC1 (stereo partly drawn) [Compound Z-11] | 0.022 |  | 
8 | CC(C)(c1cc(N[C@H]2CC[C@H](N)C2)n2nccc2n1)C1CC1 [Compound Z-12] | 0.02 | > 10 | 2.72
9 | CC(c1cc(N[C@H]2CC[C@H](N)C2)n2nccc2n1)C1CCCC1 (stereo partly drawn) [Compound Z-13] | 0.018 | 7.62 | 1.34
10 | N[C@H]1CC[C@H](Nc2cc(C(C3CC3)C3CC3)nc3c(C4CC4)cnn23)C1 [Compound Z-14] | 0.042 | 2.55 | 1.61
11 | CCc1cnn2c(N[C@H]3CC[C@H](N)C3)cc(C(C3CC3)C3CC3)nc12 [Compound Z-16] | 0.022 | 1.27 | 1.27
12 | CC1(Cc2cc(N[C@H]3CC[C@H](N)C3)n3nccc3n2)CC1 [Compound Z-17] | 0.06 | > 10 | 8.45
13 | C=CC(C)(C)c1cc(N[C@H]2CC[C@H](N)C2)n2nccc2n1 [Compound Z-18] | 0.033 | > 10 | 4.2
14 | C=CC(C)(C)c1cc(N[C@H]2CC[C@H](N)C2)n2ncc(C)c2n1 [Compound Z-19] | 0.092 | > 10 | > 10
15 | CCc1cnn2c(N[C@H]3CC[C@H](N)C3)cc(C(C)C3CC3)nc12 (stereo partly drawn) [Compound Z-20] | 0.034 | 4.39 | 2.42
16 | CC(c1cc(N[C@H]2CC[C@H](N)CC2)n2nccc2n1)C1CC1 (stereo partly drawn) [Compound Z-21] | 0.029 | 3.29 | 4.37
17 | CC(C)c1cnn2c(N[C@H]3CC[C@H](N)C3)cc(C(C3CC3)C3CC3)nc12 [Compound Z-24] | 0.084 | 2.92 | 2.53
18 | Cc1cnn2c(N[C@H]3CC[C@H](N)C3)cc(CC3(C)CC3)nc12 [Compound Z-25] | 0.021 | 8.71 | 9.87
19 | Cc1cnn2c(N[C@H]3CC[C@H](N)C3)cc([C@@H](C)C3(C)CC3)nc12 [Compound Z-26-P2] | 0.078 | > 10 | > 10
20 | Cc1cnn2c(N[C@H]3CC[C@H](N)C3)cc(C(C)C3(C)CC3)nc12 (stereo partly drawn) [Compound Z-26] | 0.026 | 7.06 | 3.92
21 | C[C@@H](c1cc(N[C@H]2CC[C@H](N)C2)n2nccc2n1)C1(C)CC1 [Compound Z-27-P1] | 0.047 | > 10 | 1.21
22 | CC[C@@H](c1cc(N[C@H]2CC[C@H](N)C2)n2ncc(C)c2n1)C1CC1 [Compound Z-30-P2] | 0.022 | 4.91 | 3.54
23 | CC(c1cc(NC2CCNC2)n2ncc(F)c2n1)C1CC1 (stereo not drawn) [Compound Z-31] | 0.104 | 6.39 | 3.21
24 | Cc1cnn2c(N[C@H]3CC[C@H](N)C3)cc([C@H](C)C3CC3)nc12 [Compound Z-32-P1] | 0.099 | > 10 | > 10
25 | Cc1cnn2c(N[C@H]3CC[C@H](N)C3)cc(C(C)(C)C3CC3)nc12 [Compound Z-34] | 0.036 | > 10 | 8.09
26 | CC(C)(c1cc(N[C@H]2CC[C@H](N)C2)n2ncc(Cl)c2n1)C1CC1 [Compound Z-35] | 0.018 | 1.56 | 1.5
27 | N[C@H]1CC[C@H](Nc2cc(C(F)(F)C3CC3)nc3ccnn23)C1 [Compound Z-37] | 0.027 | > 10 | 7.18
28 | Cc1cnn2c(N[C@H]3CC[C@H](N)C3)cc(C(C)C3CCC3)nc12 (stereo partly drawn) [Compound Z-38] | 0.017 |  | 
29 | NN1CCC(Nc2cc(C(C3CC3)C3CC3)nc3ccnn23)C1 (stereo not drawn) [Compound Z-59] |  | > 10 | 8.82

Continued, values first:

Row | IC50 (CDK9/CycT) [µM] | IC50 (CDK2/CycA) [µM] | IC50 (CDK1/CycB) [µM] | SMILES
30 | 0.016 |  |  | Cc1cnn2c(N[C@H]3CC[C@H](N)C3)cc([C@H](C)C3CCC3)nc12 (single isomer, unassigned) [Compound Z-38-P2]
31 | 0.006 | 0.191 | 0.161 | N[C@H]1CC[C@H](Nc2cc(C(C3CC3)C3CC3)nc3c(Cl)cnn23)C1 [Compound Z-2]
32 | 0.014 | 0.828 | 0.716 | N#Cc1cnn2c(N[C@H]3CC[C@H](N)C3)cc(C(C3CC3)C3CC3)nc12 [Compound Z-4]
33 | 0.005 | 0.367 | 0.293 | N[C@H]1CC[C@H](Nc2cc(C(C3CC3)C3CC3)nc3c(F)cnn23)C1 [Compound Z-15]
34 | 0.013 | 8.64 | 1.77 | CC(c1cc(N[C@H]2CC[C@H](N)C2)n2nccc2n1)(C1CC1)C1CC1 [Compound Z-22]
35 | 0.005 | 1.8 | 1.62 | Cc1cnn2c(N[C@H]3CC[C@H](N)C3)cc([C@H](C)C3(C)CC3)nc12 [Compound Z-26-P1]
36 | 0.008 | 2.78 | 2.08 | C[C@H](c1cc(N[C@H]2CC[C@H](N)C2)n2nccc2n1)C1(C)CC1 [Compound Z-27-P2]
37 | 0.009 | 2.82 | 0.772 | CC(c1cc(N[C@H]2CC[C@H](N)C2)n2nccc2n1)C1(C)CC1 (stereo partly drawn) [Compound Z-27]
38 | 0.006 | 4.51 | 2.05 | CC[C@@H](c1cc(N[C@H]2CC[C@H](N)C2)n2nccc2n1)C1CC1 [Compound Z-28-P1]
39 | 0.012 | > 10 | 2.39 | CC[C@H](c1cc(N[C@H]2CC[C@H](N)C2)n2nccc2n1)C1CC1 [Compound Z-28-P2]
40 | 0.011 | 3.07 | 1.86 | CCC(c1cc(N[C@H]2CC[C@H](N)C2)n2nccc2n1)C1CC1 (stereo partly drawn) [Compound Z-28]
41 | 0.011 | 2.06 | 1.89 | CC1(Cc2cc(N[C@H]3CC[C@H](N)C3)n3ncc(Cl)c3n2)CC1 [Compound Z-29]
42 | 0.01 | 0.968 | 1.12 | CC[C@H](c1cc(N[C@H]2CC[C@H](N)C2)n2ncc(C)c2n1)C1CC1 [Compound Z-30-P1]
43 | 0.01 | 1.55 | 1.36 | CCC(c1cc(N[C@H]2CC[C@H](N)C2)n2ncc(C)c2n1)C1CC1 (stereo partly drawn) [Compound Z-30]
44 | 0.009 | 0.967 | 0.996 | Cc1cnn2c(N[C@H]3CC[C@H](N)C3)cc(C(C)C3CC3)nc12 (stereo partly drawn) [Compound Z-32]
45 | 0.006 | 0.355 | 0.347 | N[C@H]1CC[C@H](Nc2cc(C(C3CC3)C3CC3)nc3c(C(F)(F)F)cnn23)C1 [Compound Z-33]
46 | 0.006 | 2.11 | 0.924 | CC(C)(c1cc(N[C@H]2CC[C@H](N)C2)n2ncc(F)c2n1)C1CC1 [Compound Z-36]
